Results on 3 compounds are retold here after ChEMBL document CHEMBL1156494, “Stelliferin riboside, a triterpene monosaccharide isolated from the Fijian sponge Geodia globostellifera” (J Nat Prod, 2001).

≈ marks a conversion by molar mass, not a printed value.

One assay relates to A2780. The experiment in a line: Cytotoxicity against human A2780 cells. It is filed as functional, cell-based.
In a further assay the test system is K562. The assay can be described thus: Cytotoxicity against human K562 cells. In kind it is functional, cell-based.

`C\C(=C/C=C/C(C)=C1/C(=O)C[C@H]2[C@@]3(C)CCC(=O)C(C)(C)[C@@H]3CC[C@]12C)c1ccc(C)c(=O)o1` [STELLETIN A]: the IC50 with A2780 came to 1.52 µg/mL (≈ 3.29 µM); in the assay with K562 it was 3.82 µg/mL (≈ 8.26 µM).

Consider `CC(/C=C/C=C(\C)c1ccc(C)c(=O)o1)=C1/C(=O)C[C@H]2[C@@]3(C)CCC(=O)C(C)(C)[C@@H]3CC[C@]12C` [STELLETTIN B], for which the IC50 in the assay with A2780 worked out at 0.0051 µg/mL (≈ 0.011 µM); in the assay on K562, 0.93 µg/mL (≈ 2.01 µM).

For `CC(=O)O[C@@H]1CC[C@@]2(C)[C@@H](CC[C@]3(C)/C(=C(C)/C=C/C=C(\C)C(CC=C(C)C)O[C@@H]4OC[C@@H](O)[C@@H](O)[C@H]4O)C(=O)C[C@@H]23)C1(C)C` (stereo partly specified) [STELLIFERIN RIBOSIDE], the figures for the half-maximal inhibitory concentration (IC50) in the assay with A2780 and in the assay with K562 were 38.1 µg/mL (≈ 60.6 µM) and > 50 µg/mL, respectively.

A word on the IC50: it is the midpoint of a concentration-inhibition curve. Low readings indicate higher potency, high ones lower potency.
